“And” between values parts separate entries of the source, which are not always exact repeats. Equal values may be shown once.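 These data come from cells grown in 96-well plates and exposed to compound for 48 hours at five concentrations. GI50 marks 50% less growth. At the TGI there is no net growth.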

The first experiment has as its system MOLT-4 leukemia. Nature of the experiment: inhibition of tumour cell growth, NCI panel, 48 h.
Compound `O=C(CC(C(=O)c1ccco1)c1ccco1)c1ccco1` (centres undefined) had a TGI greater than 100 µM.
On the same count and under the same terms, as for `CCOC(=O)c1sc2ncnc(N)c2c1C`, the figure is greater than 100 µM.
Consider `C=CCN1C(=O)/C(=C/c2ccc(C)cc2)N=C1SC1OC(COC(C)=O)C(OC(C)=O)C(OC(C)=O)C1OC(C)=O` (centres undefined), for which the GI50 is > 59.9 µM and 14.6 µM; the TGI is greater than 100 µM.
With `O=C1CS(=O)(=O)C(c2cccc(Oc3ccccc3)c2)N1c1cc(Cl)ccc1Cl` (centres undefined), the TGI is greater than 100 µM.
On the same count and under the same terms, for `COc1ccc(OC)c2sc(N3C(=O)/C(=C/c4cccc([N+](=O)[O-])c4)N=C3c3ccccc3)nc12` the value was 47.4 µM; for `Cc1cccc(/C(Br)=C2/OC(=O)c3ccccc32)c1`, greater than 100 µM; for `N#Cc1c(-c2ccccc2)c2c([nH]c1=O)-c1cc([N+](=O)[O-])ccc1CCC2`, greater than 100 µM.
Compound `O=[N+]([O-])c1cc(Cl)ccc1Sc1ccccc1` displayed a TGI greater than 100 µM.
Still for that read-out and setting: for `Nc1ccc(-c2nn3c(COc4ccc(Cl)cc4)nnc3s2)cc1` the value was greater than 100 µM.
The same measure, in the same setting: as for `COP(=O)(OC)C(Nc1ccc(Cc2ccc(NC(c3ccco3)P(=O)(OC)OC)cc2)cc1)c1ccco1` (centres undefined), the figure is greater than 100 µM; as for `C(=C\c1ccccc1)/COc1ccccc1C(N1CCOCC1)n1nc2ccccc2n1` (centres undefined), 13.2 µM; as for `O=C(CC(=O)Nc1ccccc1)NNC(c1cc(N=Nc2ccc(Br)cc2)ccc1O)P(O)O` (centres undefined), 4.15 µM.
Same read-out and setting: as for `CCOC(=O)C1CCC(=O)N1C(=O)c1ccccc1Cl` (centres undefined), the figure is greater than 100 µM.
The compound `CCOC(=O)c1ccc(Nc2nc3ccc(C(F)(F)F)cc3nc2C(=O)OCC)cc1` registered a TGI greater than 100 µM.
`c1ccc([P+](CCCCCCCC[P+](c2ccccc2)(c2ccccc2)c2ccccc2)(c2ccccc2)c2ccccc2)cc1` registered a TGI greater than 86 µM.
The same measure, in the same setting: as for `O=C1C(C(O)(C(F)(F)F)C(F)(F)F)CCC1C(O)(C(F)(F)F)C(F)(F)F` (centres undefined), the figure is greater than 100 µM; as for `CCOC(=O)C1=CC(C)(C(=O)OCC)Nc2c(nc(N)[nH]c2=O)N1` (centres undefined), greater than 10 µM.

For a further experiment, the system named is DU-145 prostate. As to the kind of experiment: inhibition of tumour cell growth, NCI panel, 48 h.
In the case of `COc1cc(C(O)c2ccc3c(c2)OCO3)cc(OC)c1OC` (centres undefined), the TGI is greater than 100 µM.
Same read-out and setting: for `Cc1cc(C)nc(NS(=O)(=O)c2ccc(NC(=O)c3cccc4c(NNc5ccc(S(=O)(=O)N=C(N)N)cc5)c5ccccc5nc34)cc2)n1` the value was greater than 50 µM; for `O=C(CC(C(=O)c1ccco1)c1ccco1)c1ccco1` (centres undefined), greater than 100 µM; for `CCOC(=O)c1sc2ncnc(N)c2c1C`, greater than 100 µM.
With `C=CCN1C(=O)/C(=C/c2ccc(C)cc2)N=C1SC1OC(COC(C)=O)C(OC(C)=O)C(OC(C)=O)C1OC(C)=O` (centres undefined), the TGI was greater than 100 µM.
Take `O=C1CS(=O)(=O)C(c2cccc(Oc3ccccc3)c2)N1c1cc(Cl)ccc1Cl` (centres undefined): the TGI stood at 43.3 µM.
The same measure, in the same setting: for `COc1ccc(OC)c2sc(N3C(=O)/C(=C/c4cccc([N+](=O)[O-])c4)N=C3c3ccccc3)nc12` the value was greater than 100 µM; for `Cc1cccc(/C(Br)=C2/OC(=O)c3ccccc32)c1`, greater than 100 µM.
The same measure, in the same setting: for `N#Cc1c(-c2ccccc2)c2c([nH]c1=O)-c1cc([N+](=O)[O-])ccc1CCC2` the value was 71.2 µM; for `O=[N+]([O-])c1cc(Cl)ccc1Sc1ccccc1`, greater than 100 µM.
Still for that read-out and setting: as for `Nc1ccc(-c2nn3c(COc4ccc(Cl)cc4)nnc3s2)cc1`, the figure is greater than 100 µM.
Compound `COP(=O)(OC)C(Nc1ccc(Cc2ccc(NC(c3ccco3)P(=O)(OC)OC)cc2)cc1)c1ccco1` (centres undefined) returned a TGI greater than 100 µM.
Still for that read-out and setting: as for `C(=C\c1ccccc1)/COc1ccccc1C(N1CCOCC1)n1nc2ccccc2n1` (centres undefined), the figure is 63.3 µM.
On the same count and under the same terms, as for `O=C(CC(=O)Nc1ccccc1)NNC(c1cc(N=Nc2ccc(Br)cc2)ccc1O)P(O)O` (centres undefined), the figure is greater than 10 µM; as for `CCOC(=O)C1CCC(=O)N1C(=O)c1ccccc1Cl` (centres undefined), greater than 100 µM; as for `CCOC(=O)c1ccc(Nc2nc3ccc(C(F)(F)F)cc3nc2C(=O)OCC)cc1`, greater than 100 µM.
The compound `c1ccc([P+](CCCCCCCC[P+](c2ccccc2)(c2ccccc2)c2ccccc2)(c2ccccc2)c2ccccc2)cc1` returned a TGI greater than 100 µM.
Same read-out and setting: as for `O=C1C(C(O)(C(F)(F)F)C(F)(F)F)CCC1C(O)(C(F)(F)F)C(F)(F)F` (centres undefined), the figure is greater than 100 µM; as for `CCOC(=O)C1=CC(C)(C(=O)OCC)Nc2c(nc(N)[nH]c2=O)N1` (centres undefined), greater than 10 µM.

A further experiment concerns ACHN renal. Nature of the experiment: inhibition of tumour cell growth, NCI panel, 48 h.
The compound `COc1cc(C(O)c2ccc3c(c2)OCO3)cc(OC)c1OC` (centres undefined) showed a TGI greater than 100 µM.
As to `Cc1cc(C)nc(NS(=O)(=O)c2ccc(NC(=O)c3cccc4c(NNc5ccc(S(=O)(=O)N=C(N)N)cc5)c5ccccc5nc34)cc2)n1`, the TGI was greater than 50 µM.
Compound `O=C(CC(C(=O)c1ccco1)c1ccco1)c1ccco1` (centres undefined) came in with a TGI greater than 100 µM.
Same read-out and setting: for `CCOC(=O)c1sc2ncnc(N)c2c1C` the value was greater than 100 µM.
In the case of `C=CCN1C(=O)/C(=C/c2ccc(C)cc2)N=C1SC1OC(COC(C)=O)C(OC(C)=O)C(OC(C)=O)C1OC(C)=O` (centres undefined), the GI50 is > 27.6 µM and 67.3 µM; the TGI is greater than 100 µM.
Compound `O=C1CS(=O)(=O)C(c2cccc(Oc3ccccc3)c2)N1c1cc(Cl)ccc1Cl` (centres undefined) gave a TGI of 43.1 µM.
`COc1ccc(OC)c2sc(N3C(=O)/C(=C/c4cccc([N+](=O)[O-])c4)N=C3c3ccccc3)nc12` yielded a TGI greater than 100 µM.
The same measure, in the same setting: as for `Cc1cccc(/C(Br)=C2/OC(=O)c3ccccc32)c1`, the figure is greater than 100 µM; as for `N#Cc1c(-c2ccccc2)c2c([nH]c1=O)-c1cc([N+](=O)[O-])ccc1CCC2`, 83.6 µM; as for `O=[N+]([O-])c1cc(Cl)ccc1Sc1ccccc1`, greater than 100 µM.
Compound `Nc1ccc(-c2nn3c(COc4ccc(Cl)cc4)nnc3s2)cc1` yielded a TGI greater than 100 µM.
